Assay [1] is described as follows: Antioxidant activity (DPPH radical scavenging rate). It is filed as biochemical. Conditions: positive control, commercially available reagent, 12.5 μM.
Protocol: Each sample dissolved in DMSO was dissolved in a 50 v/v % EtOH, so as to prepare a sample solution having a concentration of 25, 50, and 100 μg/mL, and dispensed in each well of a 96-well plate in an amount of 100 μL each. Thereto was added 100 μL each of a DPPH solution dissolved in EtOH so as to have a concentration of 0.1 mM, and the mixture was stirred with vortex (final concentration: 12.5, 25, or 50 μg/mL). Next, the plate was made light-resistant with an aluminum foil, and allowed to stand at room temperature (25° C.) for 30 minutes, and the absorbance at 517 nm was then measured (n=3). Using the absorbance obtained, the DPPH radical scavenging rate (%) was calculated according to the following formula (1). Here, as for the blank, the absorbance was measured in the same manner as the sample solutions except that a 50 v/v % EtOH containing 0.2% DMSO was used.
The 3T3-L1 cells were detached with TrypLE™ Select, and diluted with a DMEM medium to a concentration of 1.0×10^5 cells/mL, 100 μL each of a cell suspension was then dispensed into a 96-well plate, and the cells were cultured at 37° C. under 5% CO2. • Day 3: Each sample was prepared using a differentiation and induction medium (0.1% IBMX, 0.01% DEX). […] One-hundred microliters of the medium was transferred to a fresh 96-well plate, and the absorbance at 450 nm was measured with a microplate reader. […]
Another assay concerns 3T3-L1 cells. Briefly: Anti-adipocyte differentiation in 3T3-L1 cells (Oil Red O, WST-8 viability). To be noted: positive control, commercially available reagent, 50 μM. It is filed as cell-based. The procedure: [formula] formula (1) <Anti-Adipocyte Differentiation> [Reagents] • Dulbecco's modified eagle medium (DMEM): 10% FBS (fetal bovine sera) and 1% penicillin/streptomycin were added thereto. • TrypLE™ Select (1×) • IBMX: prepared to have a concentration of 0.5 mM with DMSO. • DEX: prepared to have a concentration of 1 μM with DMSO. • insulin solution human • WST-8: upon use, diluted with the DMEM medium to give a 2% WST-8. • Oil Red O: prepared to have a concentration of 5 mg/mL with isoPrOH, and upon use, diluted with pure water to give a 60% Oil Red O. [Method] • Day 1: 3T3-L1 Cells were previously cultured in a 10 cm dish to a state of 70 to 80% confluent. […] One-hundred microliters of the medium was transferred to a fresh 96-well plate, and the absorbance at 450 nm was measured with a microplate reader. Using those cells, a cell viability (%) was calculated as a relative value to the control. […] The 96-well plate was dried, 50 μL of 100% isoPrOH was added thereto, a mixture was allowed to stand at room temperature for 10 minutes, and the absorbance at 520 nm was then measured. Using those cells, an adipocyte differentiation (%) was calculated as a relative value to the control.

In assay [1], `O=C1O[C@H]([C@@H](O)CO)C(O)=C1O` [Vitamin C] came in with an antioxidant activity of 70%.
As to `O=c1c(O)c(-c2ccc(O)c(O)c2)oc2cc(O)cc(O)c12` [Quercetin], in the assay with 3T3-L1 cells, the anti-adipocyte differentiation is 50%.

The record behind these values is US12376614B2, “Method for producing hop processed product” (SUNTORY HOLDINGS LIMITED, priority 2016, dated 2025).
